In US8791163B2 (McGill University, priority 2006, dated 2014):
“And” between values parts separate entries of the source, which are not always exact repeats. Identical values can stand only once.

How the values were obtained:
[1] = system: Adult Sprague Dawley rats; test: Elevated plus maze (EPM); format: in vivo, rat; conditions: for Head Dips / Percentage of time in Closed Arms / Percentage of time in Open Arms / Total time duration in the Closed Arms / Total time duration in the Open Arms: injected 60 min before test
Experimental: The maze is comprised of two open arms (50×10 cm) and two closed arms (50×10×40 cm) that extend from a common central platform (10×10 cm). The apparatus, made of wood (painted black) was elevated to a height of 80 cm above floor level. The closed arms are located opposite one another. Behavior is recorded over a period of 5 min using a video camera positioned directly above the maze and rated by an observer blind to drug conditions. The major measure of interest is the amount of time spent in the open arms. As an index of general activity and distribution, the total number of entries into both open and closed arms was also recorded. […] In order to increase the sensitivity of this test to anxiolytic activity, tests are carried out under normal room illumination (25 W bulb).

[2] = system: Male rats (Sprague-Dawley); test: EEG and EMG sleep recordings (slow wave sleep, REM sleep, wakefulness); format: in vivo, rat; conditions: 5b 40 mg/kg s.c.; individual rats 1-11
Experimental: Male rats (Sprague-Dawley) weighing approximately 300-340 g were used for surgical implantation of electroencephalogram (EEG) and electromyogram (EMG) electrodes. Following the recovery from surgery, the animals were housed separately in cages and kept on a 12-hour light/dark cycle (12 h light-12 h dark, 7:30 AM lights on) at a controlled temperature (21° C.). The rats had free access to food and water ad libitum.
Rats were anaesthetized using equithesin (425 mg chloral hydrate, 1 ml 100% ethanol, 98 mg pentobarbitone, 213 mg magnesium sulphate and 3 ml propylene glycol, sterile water per 10 ml of solution; 1 ml per 300 g body weight i.p.) and placed in a stereotactic frame. The skull was exposed and carefully cleaned. Two stainless-steel epidural electrodes were implanted for the registration of the EEG under stereotactic control, through 1.5 mm burr holes at the coordinates corresponding to the right parietal-occipital cortex (AP=−2 mm L=3 mm; AP=−7 mm L=3 mm) and the left parietal-occipital cortex (AP=−4.5 mm L=3 mm) according to the atlas by Paxinos (The Rat Brain in Stereotaxic Coordinates, Academic Press, 1995). Three stainless steel wire electrodes, isolated except for the last few millimeters, were implanted into the neck muscles (two bilaterally and one in the middle) for the monitoring of the EMG. The EEG epidural electrodes and the EMG wires were fitted to a six-pin female connector. For fixation to the skull, the wires and connector were covered with dental acrylic (Coltene/Whaledent Inc. USA). The animals were allowed to recover from the surgery for at least 3-4 days.
Twenty-four hours (24 h) following the surgery, the rats were placed in the recording room from noon to 9:00 PM, for 3-4 days. The rats were connected to the 6-flat cable (3M), in a freely-moving manner, from 6:00 PM to 9:00 PM for habituation. No recordings were performed at this time, however, the tolerance to the cable and the sleep behavior were observed.
Following 3-4 days of habituation, the rats received the injection of a vehicle (DMSO/saline 7:3, 0.2 ml s.c.) at 6:00 PM and the recording was carried out until 9:00 PM. On the following day the rats received diazepam (2 mg/kg, s.c.) at 6:00 PM and the recording was performed until 9:00 PM. Four days following the injection of diazepam, the rat received 5b (40 mg/kg s.c.) and the recording also performed from 6 to 9 PM.
For each experiment, a rat was placed individually in the cage and monitoring of the signal was carried out via the attachment of a non-restraining 6-wire flat cable and a female connector, which was connected to an impedance transformer with a gain of 10, located above the cage. The EEG signal was amplified (resulting in a total gain of 10,000) and locally filtered. The EMG signal was amplified as the EEG, (EEG: low filter 1.0 Hz; high 1 KHz, EMG: low filter 30.0 Hz; high 3 KHz). The power spectra analysis was performed for identification of the sleep stages. The behavior of the animals was observed during the experiment (eye movements, ambulation, rearing etc.).
The three classical vigilance-sleep states described in the rat were discriminated on the basis of the cortical EEG and neck EMG, following the classification by Ruigt et al. (Electroencephalography and clinical Neurophysiology, 1989, 73: 52-63). Wakefulness was identified by a low-amplitude and desynchronized EEG with sustained EMG activity. Slow wave sleep (SWS, includes Quiet sleep, deep sleep and Pre-REM) was clearly distinguished by high-voltage delta waves (2-4 Hz) and spindles associated with a […] EMG activity. Pre-REM sleep was characterized by a clear theta rhythm in the EEG, frequently alternating with short lasting, high voltage spindles. REM sleep was characterized by a low-amplitude EEG with a pronounced theta rhythm (5.5-8.5 Hz), a complete loss of muscle tone, and a low voltage EMG. […]

[3] = 5b 40, 60 and 80 mg/kg, injected 60 min before the test, vs vehicle

## COc1cccc(N(CCNC(C)=O)c2ccccc2)c1 [5b, N-{2-[(3-Methoxyphenyl)-phenylamino]ethyl}acetamide]
[1]; 5b 40 mg/kg
  Head Dips: 6.30 ± 0.98
  Percentage of time in Closed Arms: 82.30 ± 2.63%
  Percentage of time in Open Arms: 17.7 ± 2.6%
  Total time duration in the Closed Arms: 219.4 ± 9.38 sec/closed arm
  Total time duration in the Open Arms: 47.4 ± 6.86 sec/open arm
[1]; 5b 60 mg/kg
  Head Dips: 8.27 ± 1.42
  Percentage of time in Closed Arms: 74.47 ± 4.06 (P = 0.02) %
  Percentage of time in Open Arms: 25.5 ± 4.1 (P = 0.02) %
  Total time duration in the Closed Arms: 199.83 ± 11.33 (P = 0.01) sec/closed arm
  Total time duration in the Open Arms: 68.93 ± 11.02 (P = 0.02) sec/open arm
[1]; 5b 80 mg/kg
  Head Dips: 9.91 ± 1.50 (P = 0.02)
  Percentage of time in Closed Arms: 68.18 ± 4.84 (P = 0.007) %
  Percentage of time in Open Arms: 31.8 ± 4.8 (P = 0.003) %
  Total time duration in the Closed Arms: 181.68 ± 14.32 (P = 0.006) sec/closed arm
  Total time duration in the Open Arms: 79.16 ± 12.0 (P = 0.001) sec/open arm
[1]; 5b 40, 60 and 80 mg/kg, injected 60 min before the test
  number of head dips (FIG. 4): increase in the number of head dips
[1]; [3]
  time in the open arms, percentage of time (FIG. 3): spent more time in the open arms
  time in the open arms, total time expressed in seconds (FIG. 2): spent more time in the open arms
[2]
  REM Sleep Duration: 8.66 min and 7.04 min and 13.89 min and 4.96 min and 8.51 min and 11.6 min and 5.61 min and 7.2 min and 11.18 min and 11.76 min and 9.48 min
  REM Sleep Latency: 76.1 min and 62.31 min and 60.92 min and 109.5 min and 86.49 min and 71.16 min and 80.13 min and 101.41 min and 80.26 min and 54.26 min and 43.83 min
  REM Sleep Mean of a Single Episode: 1.237 min and 1.76 min and 1.54 min and 1.65 min and 1.063 min and 1.933 min and 1.402 min and 2.4 min and 2.23 min and 1.68 min and 1.896 min
  REM Sleep Number (episodes): 7 episodes (2×) and 4 episodes (2×) and 9 episodes and 3 episodes (2×) and 8 episodes and 6 episodes and 5 episodes (2×)
  Slow Wave Sleep Duration: 110.29 min and 73.51 min and 87.14 min and 92.65 min and 89.42 min and 80.00 min and 88.47 min and 79.1 min and 85.8 min and 80.84 min and 104.2 min
  Slow Wave Sleep Latency: 15.73 min and 2.73 min and 1.05 min and 11.9 min and 10.85 min and 23.2 min and 25.9 min and 17.62 min and 5.05 min and 25.12 min and 17.24 min
  Slow Wave Sleep Mean of a Single Episode: 5.01 min and 2.53 min and 3 min and 3.3 min and 3.43 min and 4.21 min and 2.6 min and 2.26 min and 6.12 min and 7.34 min and 7.44 min
  Slow Wave Sleep Number (episodes): 22 episodes and 29 episodes (2×) and 28 episodes and 26 episodes and 19 episodes and 34 episodes and 35 episodes and 14 episodes (2×) and 11 episodes
  Wakefulness Duration: 82.38 min and 82.05 min and 88.37 min and 85.99 min and 93.61 min and 83.69 min and 87.41 min and 90.48 min and 61.05 min and 92.11 min and 78.94 min
  Wakefulness Mean of a Single Episode: 3.39 min and 3.54 min and 3.28 min and 2.94 min and 3.56 min and 4.9 min and 2.38 min and 2.75 min and 6.43 min and 14.56 min and 7.54 min
  Wakefulness Number (episodes): 18 episodes (2×) and 26 episodes and 24 episodes and 28 episodes and 23 episodes and 36 episodes and 34 episodes and 13 episodes and 6 episodes and 12 episodes
